Assay results: patent publication US12172969B2 (EVOFEM BIOSCIENCES, INC., priority 2018, dated 2024)

Columns and labels:
[1] = target: T1, cDNA-expressed CYP2C8 (Homo sapiens, UniProt P10632); assay: Metabolism by cDNA-expressed CYP2C8, parent remaining; conditions: 10 μM; for depletion by cDNA-expressed CYP2C8: 120 minutes
T1 sequence (P10632 1-490): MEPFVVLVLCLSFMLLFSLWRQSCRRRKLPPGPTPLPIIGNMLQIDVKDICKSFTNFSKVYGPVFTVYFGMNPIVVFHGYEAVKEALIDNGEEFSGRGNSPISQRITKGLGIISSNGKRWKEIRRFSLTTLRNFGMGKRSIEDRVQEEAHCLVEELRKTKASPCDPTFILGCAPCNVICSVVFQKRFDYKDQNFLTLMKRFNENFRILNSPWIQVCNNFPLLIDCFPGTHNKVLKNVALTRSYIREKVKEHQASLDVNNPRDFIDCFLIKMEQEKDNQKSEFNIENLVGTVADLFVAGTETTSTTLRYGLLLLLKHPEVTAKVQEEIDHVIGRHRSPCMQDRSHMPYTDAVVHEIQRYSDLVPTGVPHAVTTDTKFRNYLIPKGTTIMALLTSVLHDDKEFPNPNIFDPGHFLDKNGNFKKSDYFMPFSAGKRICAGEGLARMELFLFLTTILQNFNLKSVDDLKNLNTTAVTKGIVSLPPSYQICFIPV
Method: (§1) At two time points (0 and 120 min), the reaction was stopped by removing an aliquot and combining it with an equal volume of cold acetonitrile containing an internal standard (labetalol) and placement on ice. Samples were centrifuged to pellet the protein and the supernatant was frozen at −20° C. for subsequent analysis by LC-MS/MS.
(§2) Protein concentrations were constant for all isoforms within an experiment and standardized by the addition of control microsomes. Incubations were performed in duplicate. Incubations with vector control enzyme preparations and without enzyme source were included as negative controls.
(§3) The fraction of parent compound remaining compared to 0 min was determined based on peak area ratio (analyte/internal standard).

[2] = in vivo; cited from earlier work
[3] = target: cDNA-expressed CYP2C9 (Homo sapiens, UniProt P11712); assay: Metabolism by cDNA-expressed CYP2C9, parent remaining; conditions: 10 μM; for depletion by cDNA-expressed CYP2C9: 120 minutes
Chain of cDNA-expressed CYP2C9 (P11712 whole entry): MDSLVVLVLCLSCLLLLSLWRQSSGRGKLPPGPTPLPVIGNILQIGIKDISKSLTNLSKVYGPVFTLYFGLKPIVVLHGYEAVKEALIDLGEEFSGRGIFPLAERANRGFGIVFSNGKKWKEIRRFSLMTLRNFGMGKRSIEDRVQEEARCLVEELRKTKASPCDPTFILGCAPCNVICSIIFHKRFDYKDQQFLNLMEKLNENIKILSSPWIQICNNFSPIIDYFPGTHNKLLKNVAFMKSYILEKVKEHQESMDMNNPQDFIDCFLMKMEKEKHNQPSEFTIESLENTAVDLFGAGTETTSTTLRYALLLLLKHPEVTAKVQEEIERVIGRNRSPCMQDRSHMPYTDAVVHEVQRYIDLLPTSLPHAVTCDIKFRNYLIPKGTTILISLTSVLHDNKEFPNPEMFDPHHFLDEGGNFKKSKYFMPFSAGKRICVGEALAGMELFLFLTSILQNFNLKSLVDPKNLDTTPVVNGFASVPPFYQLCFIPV
Method: as §1, §2, §3

[4] = system: cDNA-expressed CYP1A2, CYP2A6, CYP2B6, CYP2C8, CYP2C9, CYP2C19, CYP2D6, CYP2E1, CYP3A4, and CYP3A5; assay: Metabolism by cDNA-expressed human CYP enzymes (all isoforms), parent remaining by LC-MS/MS; conditions: 1.0 μM and 10 μM, 120 minutes incubation, 37° C., compared to 0 min
Method: as §1, §2
All other positive controls were assayed at one concentration in duplicate in accordance with the methods described above. The percent of parent remaining at the end of the incubation was compared to 0 min based on the peak area ratio of the substrate and internal standard.
as §3

| percent of parent remaining ([1]; human, 2 h, pH 7.4) | percent of parent remaining ([3]; human, 2 h, pH 7.4) | Compound | excreted intact in the urine [2] | depletion by cDNA-expressed CYP2C8 [1] | depletion by cDNA-expressed CYP2C9 [3] | average percent of parent compound remaining for all isoforms and concentrations [4] |
| --- | --- | --- | --- | --- | --- | --- |
| 82% | 79% | Cc1ncc([N+](=O)[O-])n1CC(C)O (stereo not drawn) [secnidazole, 1-(2-methyl-5-nitro-1H-imidazol-1-yl) propan-2-ol, reference compound] | 50% | – | – | – |
| – | – | α,2-dimethyl-5-nitro-1H-imidazole-1-ethanol-d3 [secnidazole-d3] | – | did not demonstrate any depletion | did not demonstrate any depletion | greater than 96% |
| – | – | α,2-dimethyl-5-nitro-1H-imidazole-1-ethanol-d6 [secnidazole-d6] | – | did not demonstrate any depletion | did not demonstrate any depletion | less than 100% |
